In brackets after ≈: the same amount, converted by molar mass. Like-named read-outs stand apart in the source and are kept apart here. Values belong to the compound of their own block, whether it stands above or below them.
Assays:
[1] = Solubility of SZY1907-P3 prototype and salt forms at different pH values
[2] = Stability (purity) of the prototype at different pH values; assay type: physicochemical
[3] = Table 1; cited from earlier work
[4] = Ocular pharmacokinetic test: celecoxib content in eye tissues after ocular administration; assay type: in vivo, New Zealand rabbit; settings: after ocular administration of eye drops
Text: To compare the content of the active compound celecoxib in each eye tissue to screen out lead compound with excellent pharmacokinetic characteristics after the ocular administration of SZY1907-P3, SZY1907-P4 and celecoxib in New Zealand rabbits.
Grouping: 9 male New Zealand rabbits were randomly divided into 3 groups of 3 animals each.
Dosage: According to the formulation of Guangzhou Zhongshan Ophthalmic Center, the concentration of SZY1907-P3/P4 in eye drops is 0.1%. Thus, the dose of SZY1907-P3/P4 was set to 0.100 mg/New Zealand rabbit and the dose of celecoxib was 0.075 mg/New Zealand rabbit (close to the equimolar dose of SZY1907-P3/P4).
The administration method was consistent with the clinical method, which was, ophthalmic administration, and the rabbit left and right eyes were simultaneously administrated.
0.1% of SZY1907-P3 eye drops: 0.01000 g of SZY1907-P3 was weighed, 0.00500 g of Tween-80 and 0.04500 g of polyoxyethylene 40 hydrogenated castor oil were added, and stirred with a glass rod until the solution was in an emulsion shape. 5 mL of distilled water was added slowly while stirring, dissolved for later use. 0.09000 g of sodium chloride and 0.00125 g of 80% benzalkonium chloride were weighed, 2 mL of distilled water was added, and stirred to dissolve. The two solutions was combined and adjusted the volume to 10 mL. […]

[5] = pH 7

Compound: Cc1ccc(-c2cc(C(F)(F)F)nn2-c2ccc(S(=O)(=O)NC(=O)CCN)cc2)cc1 [SZY1907-P3]
Solubility, in words [1]: proper solubility
pH dependence of solubility, in words [1]: a certain pH dependence
Stability under storage conditions, in words [2]: relatively stable under storage conditions

Compound: NCCCCC(N)C(=O)O (centres unmarked) [lysinate]
Pka [3]: 2.16
Solubility ([1]; pH value 1): 40470 µg/mL
Solubility ([1]; pH value 2): 80 µg/mL
Solubility ([1]; pH value 4): 100 µg/mL
Solubility ([1]; pH value 6): 90 µg/mL
Solubility ([1]; pH value 7): 90 µg/mL
Solubility ([1]; pH value 8): 100 µg/mL

Compound: Cc1ccc(-c2cc(C(F)(F)F)nn2-c2ccc(S(N)(=O)=O)cc2)cc1 [Celecoxib]
Drug concentration / distribution in ocular tissues (cornea, conjunctiva and aqueous humor), in words [4]: relatively low

Compound: fumarate
Pka [3]: 3.03
Solubility [5]: 90 µg/mL

Compound: CNCCC(=O)NS(=O)(=O)c1ccc(-n2nc(C(F)(F)F)cc2-c2ccc(C)cc2)cc1 [SZY1907-P4]
Drug concentration / distribution in ocular tissues (cornea, conjunctiva and aqueous humor), in words [4]: almost not detected

Results, then the compound that gave them:

Solubility (physchem; aqueous buffer): 100 µg/mL (≈ 221 µM)
Solubility (physchem; pH 1, simulated gastric fluid): 83500 µg/mL (≈ 184000 µM)
Solubility (physchem; pH 2, simulated gastric fluid): 1020 µg/mL (≈ 2250 µM)
Solubility (physchem; pH 4, aqueous buffer): 80 µg/mL (≈ 177 µM)
Solubility (physchem; pH 6, aqueous buffer): 80 µg/mL (≈ 177 µM)
Solubility (physchem; pH 7, aqueous buffer): 90 µg/mL (≈ 199 µM)
Solubility (physchem; pH 8, aqueous buffer): 80 µg/mL (≈ 177 µM)
Solubility ([1]; Table 2, pH value 6.5-7.0): 90 µg/mL
Solubility ([1]; Table 2, pH value 7.0-7.5): 100 µg/mL
Purity at Day 0 ([2]; pH value 5.5-6.0): 99.85%
Purity at Day 1 ([2]; pH value 5.5-6.0): 99.32%
Purity at Day 2 ([2]; pH value 5.5-6.0): 99.67%
Purity at Day 5 ([2]; pH value 5.5-6.0): 99.63%
Purity at Day 0 ([2]; pH value 6.5-7.0): 99.88%
Purity at Day 1 ([2]; pH value 6.5-7.0): 100.00%
Purity at Day 2 ([2]; pH value 6.5-7.0): 99.74%
Purity at Day 5 ([2]; pH value 6.5-7.0): 99.87%
Purity at Day 0 ([2]; pH value 7.0-7.5): 99.81%
Purity at Day 1 ([2]; pH value 7.0-7.5): 100.00%
Purity at Day 2 ([2]; pH value 7.0-7.5): 99.70%
Purity at Day 5 ([2]; pH value 7.0-7.5): 99.84%
Compound: Cc1ccc(-c2cc(C(F)(F)F)nn2-c2ccc(S(=O)(=O)NC(=O)CCN)cc2)cc1 [prototype]

Solubility ([1]; pH value 1): 42900 µg/mL
Solubility ([1]; pH value 2): 25720 µg/mL
Solubility ([1]; pH value 4): 1280 µg/mL
Solubility ([1]; pH value 6): 470 µg/mL
Solubility ([1]; pH value 7): 90 µg/mL
Solubility ([1]; pH value 8): 100 µg/mL
Compound: phosphate
